# Experimental data from paper PMC8564487, “MHC-Optimized Peptide Scaffold for Improved Antigen Presentation and Anti-Tumor Response” (Frontiers in Immunology, 2021).
# What was measured:
# Type in all cases: in vivo, C57BL/6 mice
# splenocytes = assay: IFN-γ EliSpot cross-reactivity between wt and htcPep after immunization; settings: mice immunized with NAL peptide, splenocytes re-stimulated with the labelled peptide
# Procedure: C57BL/6 mice were immunized with the different htcPep. In particular, each group of animals (6 for each group) were injected by sub-cutaneous (s.c.) route with 100 µg of WT, INC (mix of selected htcPep), NAL or MIX peptides (peptide library) respectively, emulsified with 50 μg of Polyinosinic:polycytidylic acid [poly(I:C); InvivoGen] adjuvant formulated in PBS (200ul total volume). Each group received weekly the peptide vaccine in combination with metronomic chemotherapy (MCT) and ICI. One group was treated only with MCT and ICI (MCT + ICI group). Control mice were treated with endotoxin-free phosphate-buffered saline (PBS). Splenocytes were re-stimulated ex-vivo O/N with the different peptides in an IFN-γ EliSpot assay.
# ELISPOT was performed according to BD Biosciences manufacturer instructions (BD ELISPOT Mouse IFN-γ ELISPOT Set cod. 551083). 5x10^5 splenocytes or 2 x10^5 tumor infiltrated lymphocytes (TIL) were counted and plated in each well. […]
# Both splenocytes and TILs were stimulated with 10ug/ml of single or peptide pool used for the immunization and incubated for 24-26h. […] The plates were read with an AID EliSpot Reader Systems (AID GmbH, Strassberg, Germany). The results were calculated as spot forming counts as a mean of a duplicate count from the specific antigen stimulation minus the negative control.
# B16F10 tumors [1] = assay: IHC of tumor-infiltrating lymphocytes in B16F10 tumors; settings: B16F10 tumors at sacrifice, Trp2 groups, Central Tumor
# Source text: Formalin-Fixed Paraffin-Embedded (FFPE) sections were stained with CD3+, FoxP3 and Granzime B antibodies manually. Visualization of the antibody–antigen reaction was visualized by anti-alkaline phosphatase methods using Vulcan fast red (Biocare Medical FR805S) as the chromogenic substrate. Finally, sections were weakly counterstained with hematoxylin and mounted.
# Lymphocyte densities (cells/mm2) were quantified in the tumor (CT) and invasive margin (IM) by digital pathology. The slides were scanned with Aperio AT2 (Leica) and the areas (CT, IM) were selected by an experienced pathologist (MDB). Finally, the acquired images were quantified using QuPath 0.2.3.
# To evaluate the balance between cytotoxic and immune suppressive activity of B16 tumor model a formula considering the numerical difference between the GrzB+ cells (cytotoxic cells) and the FOXP3+ cells (immunosuppressive cells), on total CD3+ cells, was applied. The formula is schematized as:
# Ratio=(# of GRZB−# of FOXP3)/# of CD3.
# B16F10 tumors [2] = assay: Tumor necrosis rate (H&E) in B16F10 tumors; settings: H&E staining
# Procedure: Finally, tumor necrosis rates were evaluated for each tumor lesion. The slides were stained with hematoxylin and eosin and then subjected to reading and determination of areas of necrosis. For percentage of necrosis through the tumor mass, was used the following formula: …
# %necrosis area: (necrosis area/total tumoral mass area)∗100
substance,measurement,setting,value
"Y4W: heteroclitic E7 peptide with Tryptophan substitution at position 4 (RAHWNIVTF; UniProt P03129 49-57, looked up, variant Y52W)",T cell cross-reactivity of NAL-immunized animals with challenging htcPep,splenocytes; HPV-E7 series,strongest T cells cross-reactivity
"Trp2 wt: wild type Trp2 H-2Db epitope expressed by B16F10 melanoma cells (SVYDFFVWL; Trp2 H-2Db epitope; UniProt P29812 180-188, looked up, fragment)","Average number of FOXP3+ T cells, CT area",B16F10 tumors [1],2.8
same,% of necrosis (necrosis area/total tumoral mass area),B16F10 tumors [2],10%
"D4W: heteroclitic Trp2 peptide with Tryptophan substitution at position 4 (SVYWFFVWL; UniProt P29812 180-188, looked up, variant D183W)",T cell cross-reactivity of NAL-immunized animals with challenging htcPep,splenocytes; Trp2 series,strongest T cells cross-reactivity
